Here are results for 23 compounds from patent US10551389B2, “Target binding molecules identified by kinetic target-guided synthesis” (UNIVERSITY OF SOUTH FLORIDA, priority 2013, dated 2020).

One assay has as its target Mcl-1 (Homo sapiens, UniProt Q07820). The experiment in a line: Inhibition of Mcl-1 (disruption of Mcl-1/Bim interaction). Conditions: for inhibition at 25 µM / % Inhibition (25 μM) Mcl-1: compound at 25 μM; for inhibition at 50 µM / % Inhibition (50 μM) Mcl-1: compound at 50 μM. The format is binding. Here is the method: (§1) In a subsequent study, a structurally diverse library of forty five thio acids and thirty eight sulfonyl azides (identified above) was screened in parallel against Mcl-1 and Bcl-XL using the above mentioned approach. Several potential hit combinations were identified (Table 3). All of these kinetic TGS hit compounds were synthesized (identified above and in Table 3). All the reactions were performed at 20-30 mg scale. The 9-fluorenylmethyl thioester was placed in a 2.0 mL vial and 3.5% DBU/dry DMF solution was added (per 1 μmol of thioester, 4.7 μL, of 3.5% DBU/dry DMF solution was added) and the reaction was stirred for one minute. Then the sulfonylazide (1 eq to thioester) was added to the reaction mixture and immediately bubbling was observed. After the reaction was completed (approximately one minute, monitored by LC-MS) water (200 μL) was added and the pH was adjusted to 7.0 using 1M HCl solution. The reaction mixture was extracted with DCM until there is no product in the aqueous layer (checked by TLC or LC-MS). The product was purified by flash chromatography. Testing of these acylsulfonamides has shown that the hit compounds disrupt the Bcl-XL/Bim or Mcl-1/Bim interaction (Table 3).

Another assay deals with Bcl-XL (Homo sapiens, UniProt Q07817). The assay can be described thus: Inhibition of Bcl-XL (disruption of Bcl-XL/Bim interaction). The format is binding. Particulars: for inhibition at 25 µM / % Inhibition (25 μM) Bcl-XL: compound at 25 μM; for inhibition at 50 µM / % Inhibition (50 μM) Bcl-XL: compound at 50 μM. Here is the method: as §1

Some results are limits rather than exact numbers.

What is called inhibition is how much of the control response was suppressed. For orientation: IC50 means the concentration at which inhibition is half-maximal.

Sequence of Bcl-XL (Q07817 whole entry, species assumed): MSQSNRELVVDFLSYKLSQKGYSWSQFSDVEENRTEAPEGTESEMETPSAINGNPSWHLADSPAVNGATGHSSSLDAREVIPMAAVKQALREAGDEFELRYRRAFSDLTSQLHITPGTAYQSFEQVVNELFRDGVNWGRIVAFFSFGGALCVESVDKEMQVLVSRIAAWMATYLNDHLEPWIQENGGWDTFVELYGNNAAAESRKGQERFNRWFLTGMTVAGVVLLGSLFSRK
Sequence of Mcl-1 (Q07820 whole entry, species assumed): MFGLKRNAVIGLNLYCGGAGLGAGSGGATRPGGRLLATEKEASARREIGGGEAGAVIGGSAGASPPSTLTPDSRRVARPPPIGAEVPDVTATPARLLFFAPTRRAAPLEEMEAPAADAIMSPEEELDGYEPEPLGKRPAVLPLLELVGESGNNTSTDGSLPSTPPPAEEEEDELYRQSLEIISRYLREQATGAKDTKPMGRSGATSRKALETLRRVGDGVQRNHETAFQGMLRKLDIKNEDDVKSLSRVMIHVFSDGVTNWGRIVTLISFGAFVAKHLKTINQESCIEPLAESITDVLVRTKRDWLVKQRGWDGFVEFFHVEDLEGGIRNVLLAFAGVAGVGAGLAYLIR

Turning to `[N-]=[N+]=NS(=O)(=O)c1ccc(CN(CCSc2ccccc2)Cc2ccc(S(=O)(=O)NC(=O)c3ccc(-c4ccccn4)cc3)cc2)cc1` [SZ9TA25], the inhibition at 25 µM on Mcl-1 was found to be 43.1%. At Bcl-XL, the inhibition at 25 µM came out at 18.6% and the inhibition at 50 µM was below 2%.

As for `CC1(C)CCN(c2ccc(C(=O)NS(=O)(=O)c3ccc(CN(CCSc4ccccc4)Cc4ccc(S(N)(=O)=O)cc4)cc3)cc2)CC1` [SZ10TA2], on Mcl-1, the IC50 was 15.8 µM, the inhibition at 25 µM is 41.7% and the inhibition at 50 µM was found to be 94.7%. For the same compound, on Bcl-XL, the IC50 was 44 µM and the inhibition at 50 µM is 52.1%.

Take `NS(=O)(=O)c1ccc(CN(CCSc2ccccc2)Cc2ccc(S(=O)(=O)NC(=O)Cn3c4ccccc4c4ccccc43)cc2)cc1` [SZ10TA15]: on Mcl-1, the “% Inhibition (25 μM) Mcl-1” value worked out at 35.2% and the “% Inhibition (50 μM) Mcl-1” value amounted to 37.4%. At Bcl-XL, the “% Inhibition (25 μM) Bcl-XL” value was determined as 9.4% and the “% Inhibition (50 μM) Bcl-XL” value is listed as below 2.0%.

As to `NS(=O)(=O)c1ccc(CN(CCSc2ccccc2)Cc2ccc(S(=O)(=O)NC(=O)CCCN3C(=O)C(c4ccc(F)cc4F)=C(c4ccc(F)cc4F)C3=O)cc2)cc1` [SZ10TA20], the inhibition at 25 µM at Mcl-1 is 27.8%; on Bcl-XL it was 3.8%. For the same compound, the inhibition at 50 µM at Mcl-1 was 7.6%; on Bcl-XL, below 2%.

`NS(=O)(=O)c1ccc(CN(CCSc2ccccc2)Cc2ccc(S(=O)(=O)NC(=O)c3ccc(-c4ccccn4)cc3)cc2)cc1` [SZ10TA25]: on Mcl-1, the “% Inhibition (25 μM) Mcl-1” value is 43.9% and the “% Inhibition (50 μM) Mcl-1” value is listed as 93.6%. In addition, on Bcl-XL, the “% Inhibition (25 μM) Bcl-XL” value was determined as 33.9% and the “% Inhibition (50 μM) Bcl-XL” value was 53.4%.

Turning to `NS(=O)(=O)c1ccc(CN(CCSc2ccccc2)Cc2ccc(S(=O)(=O)NC(=O)CC3Sc4ccccc4NC3=O)cc2)cc1` (stereo not shown) [SZ10TA34], at Mcl-1, the “% Inhibition (25 μM) Mcl-1” value is reported as 19.4% and the “% Inhibition (50 μM) Mcl-1” value was determined as 64.1%. Also, on Bcl-XL, the “% Inhibition (25 μM) Bcl-XL” value is given as 17.4% and the “% Inhibition (50 μM) Bcl-XL” value amounted to 27.0%.

Take `Cn1cc(C(=O)C2CCCCC2)c2cc(C(=O)NS(=O)(=O)c3ccc(CN(CCSc4ccccc4)Cc4ccc(S(N)(=O)=O)cc4)cc3)ccc21` [SZ10TA40]: on Mcl-1, the “% Inhibition (25 μM) Mcl-1” value was 37.2% and the “% Inhibition (50 μM) Mcl-1” value was found to be 35.2%. For the same compound, at Bcl-XL, the “% Inhibition (25 μM) Bcl-XL” value was below 2.0% and the “% Inhibition (50 μM) Bcl-XL” value is on record as below 2.0%.

For `NS(=O)(=O)c1ccc(CN(CCSc2ccccc2)Cc2ccc(S(=O)(=O)NC(=O)c3cccc(NCCc4ccccc4)c3)cc2)cc1` [SZ10TA44], on Mcl-1, the “% Inhibition (25 μM) Mcl-1” value is listed as 27.6% and the “% Inhibition (50 μM) Mcl-1” value was found to be 63.4%. For the same compound, on Bcl-XL, the “% Inhibition (25 μM) Bcl-XL” value was found to be 9.9% and the “% Inhibition (50 μM) Bcl-XL” value came to 20.6%.

Take `CC(C)(C)c1ccc(-c2ccc(S(=O)(=O)NC(=O)c3ccc4c(ccn4Cc4ccc(C(F)(F)F)cc4C(F)(F)F)c3)cc2)cc1` [SZ11TA30]: at Mcl-1, the “% Inhibition (25 μM) Mcl-1” value is given as 53.1% and the “% Inhibition (50 μM) Mcl-1” value is 63.6%. Further, at Bcl-XL, the “% Inhibition (25 μM) Bcl-XL” value is 8.5% and the “% Inhibition (50 μM) Bcl-XL” value was below 2.0%.

Turning to `Cn1cc(C(=O)C2CCCCC2)c2cc(C(=O)NS(=O)(=O)c3ccc(-c4ccc(C(C)(C)C)cc4)cc3)ccc21` [SZ11TA40], on Mcl-1, the concentration for half-maximal inhibition (IC50) worked out at 21.9 µM, the inhibition at 25 µM stood at 74% and the inhibition at 50 µM was above 99%. In addition, at Bcl-XL, the inhibition at 25 µM stood at 30.7% and the inhibition at 50 µM is 58.7%.

On to `O=C(NS(=O)(=O)c1ccc(CNc2cccc([N+](=O)[O-])c2)cc1)c1ccc(CN2C(=O)C(c3ccc(F)cc3F)=C(c3ccc(F)cc3F)C2=O)cc1` [SZ12TA42], for which, on Mcl-1, the IC50 is 13.6 µM and the inhibition at 25 µM was found to be 77.3%. In addition, on Bcl-XL, the inhibition at 25 µM amounted to 14% and the inhibition at 50 µM amounted to 22.6%.

`Cn1cc(C(=O)C2CCCCC2)c2cc(C(=O)NS(=O)(=O)c3ccc(COc4ccc5c(=O)cc(-c6ccccc6)oc5c4)cc3)ccc21` [SZ14TA40]: on Mcl-1, the “% Inhibition (25 μM) Mcl-1” value is listed as 68.5% and the “% Inhibition (50 μM) Mcl-1” value is recorded as 93.1%. In addition, on Bcl-XL, the “% Inhibition (25 μM) Bcl-XL” value was found to be 27.8% and the “% Inhibition (50 μM) Bcl-XL” value is on record as 47.9%.

For the compound `O=C(NS(=O)(=O)c1ccc(CN(CCSc2ccccc2)Cc2c(F)cccc2Cl)cc1)c1ccccc1` [SZ15TA1], the IC50 at Mcl-1 amounted to 9.7 µM. Further, the inhibition at 50 µM at Bcl-XL is 53.4%.

As to `Cc1nc(-c2ccccc2)sc1C(=O)NS(=O)(=O)c1ccc(CN(CCSc2ccccc2)Cc2c(F)cccc2Cl)cc1` [SZ15TA3], the 50% inhibitory concentration (IC50) on Mcl-1 was 5.8 µM. Besides, on Bcl-XL, the inhibition at 50 µM turned out to be 43%.

As to `COc1cc(OC)cc(C(=O)NS(=O)(=O)c2ccc(CN(CCSc3ccccc3)Cc3c(F)cccc3Cl)cc2)c1` [SZ15TA5], on Mcl-1, the IC50 was determined as 13.4 µM and the “% Inhibition (50 μM) Mcl-1” value is given as above 99.0%. Besides, on Bcl-XL, the IC50 was 53 µM and the “% Inhibition (50 μM) Bcl-XL” value amounted to 38.4%.

As to `O=C(NS(=O)(=O)c1ccc(CN(CCSc2ccccc2)Cc2c(F)cccc2Cl)cc1)c1ccc(OC(F)(F)F)cc1` [SZ15TA8], at Mcl-1, the IC50 came to 7.6 µM, the “% Inhibition (25 μM) Mcl-1” value is given as below 2.0% and the “% Inhibition (50 μM) Mcl-1” value stood at 96.5%. Besides, at Bcl-XL, the IC50 worked out at 47 µM, the “% Inhibition (25 μM) Bcl-XL” value is on record as 3.4% and the “% Inhibition (50 μM) Bcl-XL” value is recorded as 12.4%.

On to `O=C(NS(=O)(=O)c1ccc(CN(CCSc2ccccc2)Cc2c(F)cccc2Cl)cc1)c1ccc(-c2ccc(F)cc2)cc1` [SZ15TA14], for which, on Mcl-1, the “% Inhibition (25 μM) Mcl-1” value worked out at 65.8% and the “% Inhibition (50 μM) Mcl-1” value amounted to 58.8%. Besides, at Bcl-XL, the “% Inhibition (25 μM) Bcl-XL” value is 31.1% and the “% Inhibition (50 μM) Bcl-XL” value amounted to 23.2%.

For the compound `O=C(Cn1c2ccccc2c2ccccc21)NS(=O)(=O)c1ccc(CN(CCSc2ccccc2)Cc2c(F)cccc2Cl)cc1` [SZ15TA15], at Mcl-1, the “% Inhibition (25 μM) Mcl-1” value stood at 42.2% and the “% Inhibition (50 μM) Mcl-1” value is 53.6%. For the same compound, on Bcl-XL, the “% Inhibition (25 μM) Bcl-XL” value was 10.1% and the “% Inhibition (50 μM) Bcl-XL” value is 8.8%.

On to `O=C(NS(=O)(=O)c1ccc(CN(CCSc2ccccc2)Cc2c(F)cccc2Cl)cc1)c1ccc(CCc2ccccn2)cc1` [SZ15TA17], for which, on Mcl-1, the half-inhibitory concentration (IC50) is 20.2 µM and the inhibition at 25 µM was determined as 79.6%. For the same compound, on Bcl-XL, the inhibition at 25 µM is 43.4% and the inhibition at 50 µM is 60%.

As to `COc1ccc(Cc2ccc(C(=O)NS(=O)(=O)c3ccc(CN(CCSc4ccccc4)Cc4c(F)cccc4Cl)cc3)cc2)c(OC)c1OC` [SZ15TA24], on Mcl-1, the “% Inhibition (25 μM) Mcl-1” value is 54.4% and the “% Inhibition (50 μM) Mcl-1” value was determined as 70.8%. Further, on Bcl-XL, the “% Inhibition (25 μM) Bcl-XL” value was found to be 14.7% and the “% Inhibition (50 μM) Bcl-XL” value worked out at 18.9%.

Take `O=C(NS(=O)(=O)c1ccc(CN(CCSc2ccccc2)Cc2c(F)cccc2Cl)cc1)c1ccc(-c2ccccn2)cc1` [SZ15TA25]: at Mcl-1, the IC50 was 15.3 µM and the inhibition at 25 µM stood at 77.2%. At Bcl-XL, the inhibition at 25 µM worked out at 43% and the inhibition at 50 µM turned out to be 57.8%.

With `O=C(CC1Sc2ccccc2NC1=O)NS(=O)(=O)c1ccc(CN(CCSc2ccccc2)Cc2c(F)cccc2Cl)cc1` (stereo not shown) [SZ15TA34], on Mcl-1, the “% Inhibition (25 μM) Mcl-1” value was 47.4% and the “% Inhibition (50 μM) Mcl-1” value was determined as 82.8%. On Bcl-XL, the “% Inhibition (25 μM) Bcl-XL” value was found to be 19.6% and the “% Inhibition (50 μM) Bcl-XL” value is listed as 28.6%.

In the case of `O=C(NS(=O)(=O)c1ccc(-c2ccc(C(F)(F)F)cc2)cc1)c1cccc(NCCc2ccccc2)c1` [SZ16TA44], at Mcl-1, the IC50 stood at 31.5 µM and the inhibition at 25 µM was found to be 49.9%. Besides, on Bcl-XL, the inhibition at 25 µM came out at 26.8% and the inhibition at 50 µM turned out to be 55.5%.
